Test [1] addresses T1, Adenosine receptor A1 (Homo sapiens) (UniProt P30542).
T1 sequence (whole entry): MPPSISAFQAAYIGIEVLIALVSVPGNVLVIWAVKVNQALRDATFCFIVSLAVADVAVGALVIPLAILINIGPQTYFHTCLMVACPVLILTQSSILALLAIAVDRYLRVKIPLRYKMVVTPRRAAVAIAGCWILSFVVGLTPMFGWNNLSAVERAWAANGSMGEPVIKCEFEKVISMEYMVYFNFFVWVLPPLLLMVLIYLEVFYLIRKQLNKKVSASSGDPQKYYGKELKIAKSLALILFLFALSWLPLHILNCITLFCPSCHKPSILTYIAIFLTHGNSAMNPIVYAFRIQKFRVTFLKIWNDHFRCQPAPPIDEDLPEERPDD
Description: Dissociation constant against Adenosine A1 receptor

The next test has as its target T2, Adenosine receptor A1 (Homo sapiens, UniProt P30542).
T2 sequence (P30542 whole entry): T1 sequence (whole entry)

Test [2] has as its target T3, Progesterone receptor (Homo sapiens, UniProt P06401).
T3 sequence (P06401 whole entry): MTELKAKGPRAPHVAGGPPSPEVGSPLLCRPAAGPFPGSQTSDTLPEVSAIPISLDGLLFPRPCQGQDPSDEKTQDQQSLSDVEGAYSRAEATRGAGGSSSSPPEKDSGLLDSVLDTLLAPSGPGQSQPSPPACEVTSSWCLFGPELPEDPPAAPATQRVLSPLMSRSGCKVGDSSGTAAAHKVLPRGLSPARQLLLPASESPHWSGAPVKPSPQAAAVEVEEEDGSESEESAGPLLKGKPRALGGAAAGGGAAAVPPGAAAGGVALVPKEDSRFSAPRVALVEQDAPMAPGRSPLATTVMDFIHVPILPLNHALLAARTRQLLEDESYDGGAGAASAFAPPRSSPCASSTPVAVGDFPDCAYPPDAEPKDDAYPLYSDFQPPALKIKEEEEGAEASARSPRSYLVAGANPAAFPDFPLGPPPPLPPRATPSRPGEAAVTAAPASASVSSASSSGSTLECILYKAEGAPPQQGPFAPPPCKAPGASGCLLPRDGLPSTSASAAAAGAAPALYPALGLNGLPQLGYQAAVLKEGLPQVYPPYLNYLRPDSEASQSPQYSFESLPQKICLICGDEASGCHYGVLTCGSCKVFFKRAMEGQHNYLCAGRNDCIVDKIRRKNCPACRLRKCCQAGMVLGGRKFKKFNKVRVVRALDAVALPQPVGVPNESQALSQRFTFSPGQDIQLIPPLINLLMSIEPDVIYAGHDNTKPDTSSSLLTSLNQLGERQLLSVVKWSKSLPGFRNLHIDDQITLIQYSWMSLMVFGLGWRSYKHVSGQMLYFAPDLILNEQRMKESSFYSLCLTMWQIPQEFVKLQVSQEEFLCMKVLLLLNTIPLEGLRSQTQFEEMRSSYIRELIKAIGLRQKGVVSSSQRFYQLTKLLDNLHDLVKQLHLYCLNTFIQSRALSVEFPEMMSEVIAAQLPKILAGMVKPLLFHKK
The experiment in a line: Dissociation constant for [3H]ORG2058 at human progesterone receptor at 293K.

Test [3] has as its target T3, Progesterone receptor. The experiment in a line: Dissociation constant for [3H]ORG2058 at human progesterone receptor at 298 K.
The target of test [4] is T3, Progesterone receptor. Put plainly: Dissociation constant for [3H]ORG2058 at human progesterone receptor at 303 K.
Test [5] concerns the target T3, Progesterone receptor. The experiment in a line: Dissociation constant for [3H]ORG2058 at human progesterone receptor at 288 K.
In test [6] the target is T3, Progesterone receptor. Put plainly: Dissociation constant for [3H]-ORG2058 at human progesterone receptor at 310K.
Test [7] addresses T3, Progesterone receptor. The experiment in a line: Dissociation constant for [3H]ORG2058 at human progesterone receptor at 273 K.
The target in test [8] is T3, Progesterone receptor. Put plainly: Dissociation constant for [3H]-ORG2058 at human progesterone receptor at 278 K.
For test [9], the target named is T3, Progesterone receptor. The experiment in a line: Dissociation constant for [3H]-ORG2058 at human progesterone receptor at 283 K.
For test [10], the target named is T3, Progesterone receptor. Put plainly: Dissociation constant for [3H]ORG2058 at human progesterone receptor at 308 K.

Among the data in ChEMBL document CHEMBL1142733, “Binding thermodynamics as a tool to investigate the mechanisms of drug-receptor interactions: thermodynamics of cytoplasmic steroid/nuclear receptors in comparison with membrane receptors” (J Med Chem, 2005) are KD hydro and Kd values, retold here.

In turn, `CC(C)Cn1c(=O)n(C)c(=O)c2nc[nH]c21` registered a KD hydro in test [1] of 19000 µM.

The compound `CC(C)Cn1c(=O)n(C)c(=O)c2[nH]cnc21` [ISOBUTYLMETHYLXANTHINE] yielded a dissociation constant Kd at Adenosine receptor A1 of 5.9 µM.

Regarding `CC[C@@H]1C[C@H]2[C@@H]3CCC4=CC(=O)CC[C@@H]4[C@H]3CC[C@]2(C)[C@H]1C(=O)CO`, the dissociation constant Kd on Progesterone receptor [2] was 0.00264 µM; at Progesterone receptor [3], 0.00316 µM; at Progesterone receptor [4], 0.00413 µM; on Progesterone receptor [5], 0.00232 µM; on Progesterone receptor [6] it was 0.00542 µM; at Progesterone receptor [7] it was 0.00328 µM. In addition, the equilibrium dissociation constant (Kd) on Progesterone receptor [8] worked out at 0.0027 µM; at Progesterone receptor [9] it was 0.00249 µM; on Progesterone receptor [10], 0.00456 µM.

In general, Kd refers to the constant that tells how readily two partners part at equilibrium. Low readings indicate a tighter complex, high ones a looser complex.
